The values below are quoted from earlier work in patent US20080287519A1, “Amorphous eletriptan hydrobromide and process for preparing it and other forms of eletriptan hydrobromide” (priority 2007, published 2008).

The subject of series [1] is opioid receptors.
In series [2] the target is T1, 5-HT1F receptor (Homo sapiens, UniProt P30939).
T1 sequence (P30939 1-366): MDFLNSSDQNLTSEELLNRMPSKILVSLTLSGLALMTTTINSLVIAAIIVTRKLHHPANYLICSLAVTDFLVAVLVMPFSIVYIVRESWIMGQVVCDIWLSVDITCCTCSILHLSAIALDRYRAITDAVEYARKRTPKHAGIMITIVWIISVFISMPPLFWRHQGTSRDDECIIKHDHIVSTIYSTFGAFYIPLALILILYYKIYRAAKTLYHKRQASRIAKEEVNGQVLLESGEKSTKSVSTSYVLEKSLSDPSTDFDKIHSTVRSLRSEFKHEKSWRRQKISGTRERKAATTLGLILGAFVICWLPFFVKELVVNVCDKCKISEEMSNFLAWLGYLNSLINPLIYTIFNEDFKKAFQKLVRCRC

The target of series [3] is 5-HT4 receptor (Homo sapiens, UniProt Q13639).
Series [4] deals with 5-HT1B receptor (Homo sapiens, UniProt P28222).
The target of series [5] is 5-HT5A receptor (Homo sapiens, UniProt P47898).
The target in series [6] is 5-HT1D receptor (Homo sapiens, UniProt P28221).
Series [7] has as its system adrenergic beta receptors.
Series [8] deals with 5-HT2A receptor (Homo sapiens, UniProt P28223).
Series [9] concerns the target T2, 5-HT2C receptor (Homo sapiens, UniProt P28335).
T2 sequence (P28335 33-458): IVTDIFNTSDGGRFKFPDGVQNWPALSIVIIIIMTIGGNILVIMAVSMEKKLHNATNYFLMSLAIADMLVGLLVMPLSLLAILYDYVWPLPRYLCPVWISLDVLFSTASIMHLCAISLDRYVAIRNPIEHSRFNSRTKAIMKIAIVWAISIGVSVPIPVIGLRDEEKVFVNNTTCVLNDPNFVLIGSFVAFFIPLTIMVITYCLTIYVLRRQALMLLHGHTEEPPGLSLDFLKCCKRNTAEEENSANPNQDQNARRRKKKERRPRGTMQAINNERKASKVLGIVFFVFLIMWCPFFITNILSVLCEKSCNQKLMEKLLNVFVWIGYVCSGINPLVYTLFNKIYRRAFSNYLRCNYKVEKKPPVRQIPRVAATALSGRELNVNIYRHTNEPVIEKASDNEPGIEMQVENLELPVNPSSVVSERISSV

Series [10] addresses 5-HT2B receptor (Homo sapiens, UniProt P41595).
For series [11], the system named is 5-HT3 receptor.
The target in series [12] is 5-HT1E receptor (Homo sapiens, UniProt P28566).
The target in series [13] is dopaminergic D1 receptors (Homo sapiens, UniProt P21728).
In series [14] the target is 5-HT6 receptor (Homo sapiens, UniProt P50406).
Series [15] addresses T3, 5-HT1A receptor (Homo sapiens, UniProt P08908).
T3 sequence (P08908 1-422): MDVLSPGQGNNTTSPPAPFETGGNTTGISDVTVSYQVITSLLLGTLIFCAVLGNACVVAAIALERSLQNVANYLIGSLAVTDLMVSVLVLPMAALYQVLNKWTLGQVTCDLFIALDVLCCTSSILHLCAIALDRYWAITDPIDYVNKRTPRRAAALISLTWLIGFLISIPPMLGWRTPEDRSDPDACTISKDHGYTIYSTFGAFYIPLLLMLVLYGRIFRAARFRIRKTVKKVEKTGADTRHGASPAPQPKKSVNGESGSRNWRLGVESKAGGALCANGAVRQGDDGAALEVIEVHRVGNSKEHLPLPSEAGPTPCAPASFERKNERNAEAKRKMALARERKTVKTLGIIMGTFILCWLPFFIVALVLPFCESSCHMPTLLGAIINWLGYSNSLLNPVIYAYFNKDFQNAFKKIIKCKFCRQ

Series [16] has as its target dopaminergic D2 receptors (Homo sapiens, UniProt P14416).
Series [17] has as its system adrenergic alpha2 receptors.
The target in series [18] is 5-HT7 receptor (Homo sapiens, UniProt P34969).
In series [19] the test system is adrenergic alpha1 receptors.
For series [20], the system named is muscarinic receptors.

Molecules are shown by their SMILES.

Sequence of 5-HT2B receptor (P41595 whole entry): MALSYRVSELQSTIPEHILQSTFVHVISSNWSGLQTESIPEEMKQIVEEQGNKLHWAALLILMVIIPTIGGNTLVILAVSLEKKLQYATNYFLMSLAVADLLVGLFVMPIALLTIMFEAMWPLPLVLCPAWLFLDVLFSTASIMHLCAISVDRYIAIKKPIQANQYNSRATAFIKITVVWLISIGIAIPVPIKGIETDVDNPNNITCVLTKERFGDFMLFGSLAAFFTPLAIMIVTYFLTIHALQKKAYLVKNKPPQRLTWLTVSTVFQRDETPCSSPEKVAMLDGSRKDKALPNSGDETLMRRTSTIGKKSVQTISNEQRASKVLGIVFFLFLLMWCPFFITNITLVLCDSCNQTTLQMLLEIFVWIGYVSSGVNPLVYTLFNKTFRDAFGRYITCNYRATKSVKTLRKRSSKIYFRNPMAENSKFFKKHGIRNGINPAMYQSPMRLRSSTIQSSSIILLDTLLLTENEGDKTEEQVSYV
Sequence of dopaminergic D2 receptors (P14416 whole entry): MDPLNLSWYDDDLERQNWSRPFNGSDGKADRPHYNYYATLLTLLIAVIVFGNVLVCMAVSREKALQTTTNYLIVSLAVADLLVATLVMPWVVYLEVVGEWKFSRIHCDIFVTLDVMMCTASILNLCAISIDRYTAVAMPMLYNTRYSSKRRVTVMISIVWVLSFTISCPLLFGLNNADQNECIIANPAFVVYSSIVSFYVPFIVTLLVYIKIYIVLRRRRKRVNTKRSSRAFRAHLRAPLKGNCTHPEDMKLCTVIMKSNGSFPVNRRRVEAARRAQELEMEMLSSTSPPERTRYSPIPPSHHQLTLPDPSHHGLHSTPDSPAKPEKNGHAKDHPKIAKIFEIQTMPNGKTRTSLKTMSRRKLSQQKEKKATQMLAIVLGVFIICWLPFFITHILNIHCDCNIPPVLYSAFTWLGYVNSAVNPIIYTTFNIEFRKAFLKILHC
Sequence of 5-HT1D receptor (P28221 whole entry): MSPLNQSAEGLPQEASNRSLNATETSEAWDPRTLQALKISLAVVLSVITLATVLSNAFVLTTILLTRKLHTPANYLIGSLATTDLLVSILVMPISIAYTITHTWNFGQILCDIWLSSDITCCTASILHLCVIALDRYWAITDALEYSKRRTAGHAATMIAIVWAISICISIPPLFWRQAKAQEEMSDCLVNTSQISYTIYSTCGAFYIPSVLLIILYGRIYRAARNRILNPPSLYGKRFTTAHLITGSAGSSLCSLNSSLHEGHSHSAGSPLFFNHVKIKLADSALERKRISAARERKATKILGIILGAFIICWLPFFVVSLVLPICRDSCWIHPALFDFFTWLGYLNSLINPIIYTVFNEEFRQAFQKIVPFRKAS
Sequence of 5-HT2A receptor (P28223 whole entry): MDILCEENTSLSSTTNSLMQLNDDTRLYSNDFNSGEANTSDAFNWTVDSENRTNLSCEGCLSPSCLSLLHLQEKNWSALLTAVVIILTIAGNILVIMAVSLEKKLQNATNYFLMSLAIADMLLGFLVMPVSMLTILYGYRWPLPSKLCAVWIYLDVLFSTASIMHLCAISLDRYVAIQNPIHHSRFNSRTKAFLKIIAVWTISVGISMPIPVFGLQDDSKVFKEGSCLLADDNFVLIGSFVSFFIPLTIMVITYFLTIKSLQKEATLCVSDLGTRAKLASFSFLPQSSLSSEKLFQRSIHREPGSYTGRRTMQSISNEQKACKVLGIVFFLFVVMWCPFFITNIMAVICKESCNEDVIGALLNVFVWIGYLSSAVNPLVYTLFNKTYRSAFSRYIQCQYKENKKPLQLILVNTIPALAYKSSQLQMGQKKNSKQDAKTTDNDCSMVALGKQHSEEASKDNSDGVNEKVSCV
Sequence of 5-HT1E receptor (P28566 whole entry): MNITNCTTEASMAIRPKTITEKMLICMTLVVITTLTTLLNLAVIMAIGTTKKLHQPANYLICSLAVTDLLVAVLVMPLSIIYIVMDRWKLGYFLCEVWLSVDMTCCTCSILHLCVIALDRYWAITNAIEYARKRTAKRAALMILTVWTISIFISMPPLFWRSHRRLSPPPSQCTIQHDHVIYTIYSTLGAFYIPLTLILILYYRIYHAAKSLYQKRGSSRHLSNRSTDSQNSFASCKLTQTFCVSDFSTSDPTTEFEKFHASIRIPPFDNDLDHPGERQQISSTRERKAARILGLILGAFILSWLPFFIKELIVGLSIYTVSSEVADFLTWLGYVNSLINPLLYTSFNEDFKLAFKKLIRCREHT
Sequence of 5-HT6 receptor (P50406 whole entry): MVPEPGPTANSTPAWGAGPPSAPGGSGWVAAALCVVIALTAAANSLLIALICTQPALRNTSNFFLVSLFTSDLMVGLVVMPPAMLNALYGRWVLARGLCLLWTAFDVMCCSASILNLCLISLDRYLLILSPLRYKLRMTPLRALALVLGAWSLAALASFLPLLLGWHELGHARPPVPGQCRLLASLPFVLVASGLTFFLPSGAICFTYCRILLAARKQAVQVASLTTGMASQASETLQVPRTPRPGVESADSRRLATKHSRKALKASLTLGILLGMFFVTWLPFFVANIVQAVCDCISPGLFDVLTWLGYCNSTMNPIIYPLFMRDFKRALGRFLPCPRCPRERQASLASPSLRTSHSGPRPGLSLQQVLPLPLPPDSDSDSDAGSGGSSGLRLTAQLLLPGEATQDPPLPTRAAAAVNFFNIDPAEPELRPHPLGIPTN
Sequence of dopaminergic D1 receptors (P21728 whole entry): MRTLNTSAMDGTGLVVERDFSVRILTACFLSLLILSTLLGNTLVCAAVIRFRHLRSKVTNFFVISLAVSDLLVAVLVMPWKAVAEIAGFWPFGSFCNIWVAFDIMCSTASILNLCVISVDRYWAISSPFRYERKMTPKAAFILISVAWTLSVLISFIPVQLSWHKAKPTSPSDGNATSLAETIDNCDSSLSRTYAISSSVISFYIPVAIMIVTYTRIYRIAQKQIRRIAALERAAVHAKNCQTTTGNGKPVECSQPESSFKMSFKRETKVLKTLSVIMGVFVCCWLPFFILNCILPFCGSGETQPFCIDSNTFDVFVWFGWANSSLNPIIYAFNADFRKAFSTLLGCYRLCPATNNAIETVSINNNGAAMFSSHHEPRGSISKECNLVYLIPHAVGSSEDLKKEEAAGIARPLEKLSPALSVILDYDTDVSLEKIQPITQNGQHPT
Sequence of 5-HT5A receptor (P47898 whole entry): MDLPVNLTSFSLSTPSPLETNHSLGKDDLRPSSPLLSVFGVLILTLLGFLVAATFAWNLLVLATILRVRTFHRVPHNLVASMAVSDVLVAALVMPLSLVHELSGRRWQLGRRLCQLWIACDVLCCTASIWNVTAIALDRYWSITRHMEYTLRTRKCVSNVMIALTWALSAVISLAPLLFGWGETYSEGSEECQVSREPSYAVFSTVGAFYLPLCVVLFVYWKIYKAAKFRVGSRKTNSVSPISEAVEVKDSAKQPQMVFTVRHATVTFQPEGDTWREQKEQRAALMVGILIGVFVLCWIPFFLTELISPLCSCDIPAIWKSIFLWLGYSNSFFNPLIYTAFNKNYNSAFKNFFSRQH
Sequence of 5-HT1B receptor (P28222 whole entry): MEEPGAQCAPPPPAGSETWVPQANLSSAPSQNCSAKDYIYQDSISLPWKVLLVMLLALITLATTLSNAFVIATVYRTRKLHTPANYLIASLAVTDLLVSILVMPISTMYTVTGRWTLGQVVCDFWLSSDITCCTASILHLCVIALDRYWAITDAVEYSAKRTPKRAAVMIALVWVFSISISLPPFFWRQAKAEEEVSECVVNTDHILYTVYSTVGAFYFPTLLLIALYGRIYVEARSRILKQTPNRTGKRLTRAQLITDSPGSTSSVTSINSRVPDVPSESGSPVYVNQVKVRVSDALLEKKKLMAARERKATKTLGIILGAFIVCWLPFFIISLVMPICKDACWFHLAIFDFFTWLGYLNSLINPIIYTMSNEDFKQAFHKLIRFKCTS
Sequence of 5-HT4 receptor (Q13639 whole entry): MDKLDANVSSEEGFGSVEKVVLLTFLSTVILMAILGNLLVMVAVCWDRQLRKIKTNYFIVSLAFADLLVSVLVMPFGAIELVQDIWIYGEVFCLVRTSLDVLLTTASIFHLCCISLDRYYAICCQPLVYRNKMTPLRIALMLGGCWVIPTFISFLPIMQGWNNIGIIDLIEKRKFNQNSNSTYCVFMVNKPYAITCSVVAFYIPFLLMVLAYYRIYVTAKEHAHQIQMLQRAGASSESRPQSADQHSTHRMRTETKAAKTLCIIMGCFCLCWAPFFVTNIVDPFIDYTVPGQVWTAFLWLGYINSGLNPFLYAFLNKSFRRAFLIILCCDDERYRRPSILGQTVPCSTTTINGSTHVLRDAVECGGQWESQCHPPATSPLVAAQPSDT
Sequence of 5-HT7 receptor (P34969 whole entry): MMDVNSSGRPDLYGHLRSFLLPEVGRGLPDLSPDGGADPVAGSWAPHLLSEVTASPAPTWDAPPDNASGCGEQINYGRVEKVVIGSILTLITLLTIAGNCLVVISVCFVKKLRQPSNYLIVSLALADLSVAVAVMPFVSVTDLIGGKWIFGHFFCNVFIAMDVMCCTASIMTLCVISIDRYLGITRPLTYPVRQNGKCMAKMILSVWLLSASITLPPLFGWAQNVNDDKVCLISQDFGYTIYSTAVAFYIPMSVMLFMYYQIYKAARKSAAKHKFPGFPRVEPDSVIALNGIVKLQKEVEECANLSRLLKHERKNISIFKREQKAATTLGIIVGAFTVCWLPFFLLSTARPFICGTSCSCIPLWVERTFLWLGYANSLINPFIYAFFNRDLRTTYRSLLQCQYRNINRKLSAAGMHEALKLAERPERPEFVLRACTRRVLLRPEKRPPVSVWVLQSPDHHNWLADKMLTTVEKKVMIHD

Take `CN1CCC[C@@H]1Cc1c[nH]c2ccc(CCS(=O)(=O)c3ccccc3)cc12` [Eletriptan, 3-(N-methyl-2(R)-pyrrolidinylmethyl)-5-(2-phenylsulphonylethyl)-1H-indole]: the “affinity or pharmacological activity” value in series [1], in series [7], in series [13], in series [16], in series [17] and in series [19] was “no significant affinity or pharmacological activity” each time. For the same molecule, the “affinity or pharmacological activity” value in [20] is given as “no significant affinity or pharmacological activity”. The affinity result in series [2] is reported as “high affinity”; in series [3], “little or no affinity”; in [4], “high affinity”; in series [5], “little or no affinity”; in series [6], “high affinity”; in series [8], “little or no affinity”. The affinity entry in series [9] is recorded as “little or no affinity”; in [10], “modest affinity”; in series [11], “little or no affinity”; in [12], “modest affinity”; in series [14], “little or no affinity”; in [15] it was “modest affinity”. The affinity entry in series [18] was “modest affinity”.
